The values below are quoted from earlier work in publication PMC10901556, “Conservation of Affinity Rather Than Sequence Underlies a Dynamic Evolution of the Motif-Mediated p53/MDM2 Interaction in Ray-Finned Fishes” (Molecular Biology and Evolution, 2024).

The target in one series is human MDM2. To be noted: ref Åberg et al. (2018); read-out: KD (μM) p53TAD^full-length native (converted); cited from earlier work. From the text:
Therefore, we expressed, purified, and subjected a longer p53TAD construct from D. rerio to binding experiments (Fig. 4a).

The next series concerns the target T1, MDM2D.rerio SWIB domain (Danio rerio, UniProt O42354).
T1 construct: NusA-TEV-His6-PreScission (N, cleaved yes); made in house; host or cells: Escherichia coli BL21 (DE3)
T1 sequence (O42354 with tags, fused parts or gaps): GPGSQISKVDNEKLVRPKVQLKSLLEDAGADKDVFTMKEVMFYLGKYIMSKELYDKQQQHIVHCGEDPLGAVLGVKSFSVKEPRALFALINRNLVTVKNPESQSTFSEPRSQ
To be noted: ref Mihalič et al. 2023; cited from earlier work. An excerpt:
Abstract The transcription factor and cell cycle regulator p53 is marked for degradation by the ubiquitin ligase MDM2. The interaction between these 2 proteins is mediated by a conserved binding motif in the disordered p53 transactivation domain (p53TAD) and the folded SWIB domain in MDM2. […] The interaction between the proteins is mediated by a conserved binding motif in the intrinsically disordered N-terminal transactivation domain (TAD) of p53 and a SWIB domain in MDM2 (Fig. 1). The interaction leads to MDM2-catalyzed ubiquitination and proteasomal degradation of p53. Phosphorylation of p53TAD increases affinity for the general transcriptional coactivators CBP/p300 a ...

On to “H.sap p53 full: expressed full-length human p53 transactivation domain”, for which the Kd on human MDM2 was 0.1 µM.

On to “p53TADD.rerio (residues 15 to 26): peptide corresponding to the conserved binding motif in p53TADD.rerio, earlier study (KNLIIQPPGGGS; UniProt P79734 15-26, looked up, fragment)”, for which the “affinity in binding assay” value with MDM2D.rerio SWIB domain is reported as “no affinity”.

What is called Kd is a measure of binding affinity in units of concentration.
